Data on 24 molecules can be found in patent US20250304576A1 (Cancer Research Technology Limited, priority 2022, published 2025).

Molecules are shown by their SMILES.

One assay concerns the target T1, Recombinant IKKα (Homo sapiens, UniProt O15111).
T1 construct: purchased Millipore, Dundee, UK
T1 sequence (O15111 1-745): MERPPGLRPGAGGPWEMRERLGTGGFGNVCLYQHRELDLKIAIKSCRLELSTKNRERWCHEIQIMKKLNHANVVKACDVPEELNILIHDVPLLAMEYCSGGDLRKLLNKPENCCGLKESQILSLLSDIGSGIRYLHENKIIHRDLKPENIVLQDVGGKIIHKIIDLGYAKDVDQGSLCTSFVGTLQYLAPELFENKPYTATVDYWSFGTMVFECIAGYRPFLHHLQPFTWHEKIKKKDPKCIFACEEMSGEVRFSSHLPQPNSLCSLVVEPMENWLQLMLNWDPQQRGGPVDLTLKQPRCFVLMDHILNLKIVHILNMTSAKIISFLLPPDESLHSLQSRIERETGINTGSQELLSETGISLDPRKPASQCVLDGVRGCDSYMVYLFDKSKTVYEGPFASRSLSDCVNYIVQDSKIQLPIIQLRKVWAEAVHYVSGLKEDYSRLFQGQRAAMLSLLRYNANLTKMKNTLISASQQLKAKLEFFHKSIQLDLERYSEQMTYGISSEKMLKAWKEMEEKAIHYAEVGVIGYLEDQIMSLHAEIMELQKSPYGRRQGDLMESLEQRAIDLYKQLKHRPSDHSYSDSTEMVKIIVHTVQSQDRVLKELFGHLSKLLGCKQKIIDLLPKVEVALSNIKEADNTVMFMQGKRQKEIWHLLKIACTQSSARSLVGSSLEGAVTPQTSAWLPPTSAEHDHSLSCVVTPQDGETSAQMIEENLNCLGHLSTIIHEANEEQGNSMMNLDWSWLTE
In words: DELFIA IKKα kinase assay (apparent Ki, Cheng-Prusoff). In kind it is biochemical. The note with it: DELFIA assay (first line of an example). The procedure, abridged: (§1)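 DELFIA time-resolved fluorescence (ex 340/em 615 nm) quantified phosphorylation of a biotinylated IκB-α Ser32 peptide (0.375 μM) by 37 nM recombinant IKKα or IKKβ. Reactions used 40 μM ATP, Tris pH 7.5 buffer with MgCl2, DTT and BSA, 60 min at 30° C. Cheng-Prusoff equation gave apparent Ki.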

In the next assay the target is T2, Recombinant IKKβ (Homo sapiens, UniProt O14920).
T2 construct: purchased Millipore, Dundee, UK
T2 sequence (O14920 1-756): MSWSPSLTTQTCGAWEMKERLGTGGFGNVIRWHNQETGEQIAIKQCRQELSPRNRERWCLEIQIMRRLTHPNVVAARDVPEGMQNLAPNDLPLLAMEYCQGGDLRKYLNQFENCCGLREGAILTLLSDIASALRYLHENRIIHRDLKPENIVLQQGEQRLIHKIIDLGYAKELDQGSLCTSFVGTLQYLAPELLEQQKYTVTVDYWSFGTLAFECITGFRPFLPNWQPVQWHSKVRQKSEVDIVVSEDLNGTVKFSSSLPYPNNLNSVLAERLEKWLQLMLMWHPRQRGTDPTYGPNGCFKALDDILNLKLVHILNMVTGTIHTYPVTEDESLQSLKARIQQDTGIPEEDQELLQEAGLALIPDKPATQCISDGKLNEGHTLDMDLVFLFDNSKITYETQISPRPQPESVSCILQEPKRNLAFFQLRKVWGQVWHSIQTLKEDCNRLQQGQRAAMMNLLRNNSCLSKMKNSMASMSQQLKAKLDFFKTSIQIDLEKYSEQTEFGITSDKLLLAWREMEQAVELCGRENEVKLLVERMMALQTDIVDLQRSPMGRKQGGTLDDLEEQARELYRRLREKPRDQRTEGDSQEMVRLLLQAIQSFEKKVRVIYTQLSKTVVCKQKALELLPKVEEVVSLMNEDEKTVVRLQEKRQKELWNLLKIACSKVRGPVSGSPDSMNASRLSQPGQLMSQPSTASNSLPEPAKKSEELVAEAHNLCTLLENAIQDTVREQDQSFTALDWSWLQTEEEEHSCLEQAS
In words: DELFIA IKKβ kinase assay (apparent Ki, Cheng-Prusoff). The note with it: DELFIA assay (first line of an example). The class given is biochemical. The procedure, abridged: as §1

Take `Nc1n[nH]c2c(C#Cc3ccccc3)cc(-c3ccnc4[nH]c(CCN5CCOCC5)cc34)cc12` [Example 281, 5-(2-(2-Morpholinoethyl)-1H-pyrrolo[2,3-b]pyridin-4-yl)-7-(phenylethynyl)-1H-indazol-3-amine]: the Ki was 0.047 µM on Recombinant IKKα and 0.331 µM on Recombinant IKKβ.
With `CC(C)(C)C#Cc1cc(-c2ccnc(Nc3ncco3)c2)cc2c(N)n[nH]c12` [Example 282, N-(4-(3-Amino-7-(3,3-dimethylbut-1-yn-1-yl)-1H-indazol-5-yl)pyridin-2-yl)oxazol-2-amine], the figures for the Ki on Recombinant IKKα and at Recombinant IKKβ were 0.019 µM and 0.594 µM, respectively.
On to `CC(C)(C)C#Cc1cc(-c2ccnc(NCCC(F)(F)F)c2)cc2c(N)n[nH]c12` [Example 283, 7-(3,3-Dimethylbut-1-yn-1-yl)-5-(2-((3,3,3-trifluoropropyl)amino)pyridin-4-yl)-1H-indazol-3-amine], for which the Ki was 0.215 µM at Recombinant IKKα and above 10 µM at Recombinant IKKβ.
In the same order, the values of `Nc1n[nH]c2c(C#CC3CC3)cc(-c3ccnc(NC4COC4)c3)cc12` [Example 284, 7-(Cyclopropylethynyl)-5-(2-(oxetan-3-ylamino)pyridin-4-yl)-1H-indazol-3-amine] are 0.012 µM and 0.386 µM.
In the same order, the values of `COC(=O)Nc1cc(-c2cc(C#CC3CCOCC3)c3[nH]nc(N)c3c2)ccn1` [Example 285] are 0.037 µM and 0.274 µM.
In the case of `CC(C)(O)C#Cc1cc(-c2ccnc(NC3COC3)c2)cc2c(N)n[nH]c12` [Example 287, 4-(3-Amino-5-(2-(oxetan-3-ylamino)pyridin-4-yl)-1H-indazol-7-yl)-2-methylbut-3-yn-2-ol], the Ki at Recombinant IKKα was 0.093 µM; at Recombinant IKKβ, 2.05 µM.
In the same order, the values of `Nc1n[nH]c2c(C#CC3CCOCC3)cc(-c3ccnc(NC4COC4)c3)cc12` [Example 288, 5-(2-(Oxetan-3-ylamino)pyridin-4-yl)-7-((tetrahydro-2H-pyran-4-yl)ethynyl)-1H-indazol-3-amine] are 0.024 µM and 0.5 µM.
In the same order, the values of `Nc1n[nH]c2c(C#CC3CC3)cc(-c3ccnc(NC(=O)C4CC4)c3)cc12` [Example 289, N-(4-(3-Amino-7-(cyclopropylethynyl)-1H-indazol-5-yl)pyridin-2-yl)cyclopropanecarboxamide] are 0.042 µM and 0.57 µM.
The matching figures for `CC(C)(O)C#Cc1cc(-c2ccnc(NC(=O)C3CC3)c2)cc2c(N)n[nH]c12` [Example 290, N-(4-(3-Amino-7-(3-hydroxy-3-methylbut-1-yn-1-yl)-1H-indazol-5-yl)pyridin-2-yl)cyclopropanecarboxamide]: 0.055 µM and 0.242 µM.
On to `CC(C)(O)CCc1cc(-c2ccnc(NC(=O)C3CC3)c2)cc2c(N)n[nH]c12` [Example 292, N-(4-(3-Amino-7-(3-hydroxy-3-methylbutyl)-1H-indazol-5-yl)pyridin-2-yl)cyclopropanecarboxamide], for which the Ki on Recombinant IKKα amounted to 0.009 µM; at Recombinant IKKβ it was 0.044 µM.
The matching figures for `COC(=O)Nc1cc(-c2cc(CCC(C)(C)C)c3[nH]nc(N)c3c2)ccn1` [Example 293, Methyl (4-(3-amino-7-(3,3-dimethylbutyl)-1H-indazol-5-yl)pyridin-2-yl)carbamate]: 0.019 µM and 0.278 µM.
For the molecule `CC(C)(C)C#Cc1cc(-c2ccnc3[nH]c(C4CC4)cc23)cc2c(N)n[nH]c12` [Example 294, 5-(2-Cyclopropyl-1H-pyrrolo[2,3-b]pyridin-4-v)-7-(3,3-dimethylbut-1-yn-1-Vl)-1H-indazol-3-amine], the Ki on Recombinant IKKα was found to be 0.057 µM; on Recombinant IKKβ, 0.322 µM.
Regarding `CC(C)(C)C#Cc1cc(-c2ccnc3[nH]c(C4CCCC4)cc23)cc2c(N)n[nH]c12` [Example 295, 5-(2-Cyclopentyl-1H-pyrrolo[2,3-b]pyridin-4-yl)-7-(3,3-dimethylbut-1-yn-1-yl)-1H-indazol-3-amine], the values for the Ki at Recombinant IKKα and at Recombinant IKKβ were 0.545 µM and 1.16 µM, respectively.
In the case of `CC(C)(C)C#Cc1cc(-c2ccnc3[nH]c(C(C)(C)C)cc23)cc2c(N)n[nH]c12` [Example 296, 5-(2-(tert-Butyl)-1H-pyrrolo[2,3-b]pyridin-4-yl)-7-(3,3-dimethylbut-1-yn-1-yl)-1H-indazol-3-amine], the Ki at Recombinant IKKα came out at 0.449 µM; on Recombinant IKKβ it was 1.08 µM.
The matching figures for `CC(C)(C)C#Cc1cc(-c2ccnc3[nH]c(CO)cc23)cc2c(N)n[nH]c12` [Example 297, (4-(3-Amino-7-(3,3-dimethylbut-1-yn-1-yl)-1H-indazol-5-yl)-1H-pyrrolo[2,3-b]pyridin-2-yl)methanol]: 0.002 µM and 0.268 µM.
As to `CC(C)(C)C#Cc1cc(-c2ccnc3[nH]c(C(C)(C)O)cc23)cc2c(N)n[nH]c12` [Example 298, 2-(4-(3-Amino-7-(3,3-dimethylbut-1-yn-1-yl)-1H-indazol-5-yl)-1H-pyrrolo[2,3-b]pyridin-2-yl)propan-2-ol], the figures for the Ki at Recombinant IKKα and at Recombinant IKKβ were 0.016 µM and 0.54 µM, respectively.
In the case of `COC(=O)c1cc2c(-c3cc(C#CC(C)(C)C)c4[nH]nc(N)c4c3)ccnc2[nH]1` [Example 299, Methyl 4-(3-amino-7-(3,3-dimethylbut-1-yn-1-yl)-1H-indazol-5-yl)-1H-pyrrolo[2,3-b]pyridine-2-carboxylate], the Ki at Recombinant IKKα was 0.01 µM; at Recombinant IKKβ, above 0.37 µM.
The matching figures for `CC(C)(C)C#Cc1cc(-c2ccnc3[nH]c(C(F)F)nc23)cc2c(N)n[nH]c12` [Example 300, 5-(2-(Difluoromethyl)-3H-imidazo[4,5-b]pyridin-7-yl)-7-(3,3-dimethylbut-1-yn-1-yl)-1H-indazol-3-amine]: 0.013 µM and 1.34 µM.
The matching figures for `CC(C)(C)C#Cc1cc(-c2ccnc3[nH]c(C4CCC4)nc23)cc2c(N)n[nH]c12` [Example 301, 5-(2-Cyclobutyl-3H-imidazo[4,5-b]pyridin-7-yl)-7-(3,3-dimethylbut-1-yn-1-yl)-1H-indazol-3-amine]: 0.082 µM and 1.24 µM.
The matching figures for `Cn1ccc(Nc2cc(-c3cc(C#CC(C)(C)C)c4[nH]nc(N)c4c3)ccn2)n1` [Example 302, 7-(3,3-dimethylbut-1-yn-1-yl)-5-(2-((1-methyl-1H-pyrazol-3-yl)amino)pyridin-4-yl)-1H-indazol-3-amine]: 0.062 µM and 0.148 µM.
With `Cn1cc(Nc2cc(-c3cc(C#CC(C)(C)C)c4[nH]nc(N)c4c3)ccn2)cn1` [Example 303, 7-(3,3-dimethylbut-1-yn-1-yl)-5-(2-((1-methyl-1H-pyrazol-4-yl)amino)pyridin-4-yl)-1H-indazol-3-amine], the results for the Ki on Recombinant IKKα and at Recombinant IKKβ were 0.036 µM and 0.068 µM, respectively.
The matching figures for `COC(=O)Nc1cc(-c2cc(C#CC3(O)CCCC3)c3[nH]nc(N)c3c2)ccn1` [Example 304, Methyl (4-(3-amino-7-((1-hydroxycyclopentyl)ethynyl)-1H-indazol-5-yl)pyridin-2-yl)carbamate]: 0.064 µM and 0.275 µM.
For the molecule `Nc1n[nH]c2c(C#CC3(O)CCCC3)cc(-c3ccnc(NC4COC4)c3)cc12` [Example 305, 1-((3-Amino-5-(2-(oxetan-3-ylamino)pyridin-4-yl)-1H-indazol-7-yl)ethynyl)cyclopentan-1-ol], the results for the Ki at Recombinant IKKα and on Recombinant IKKβ were 0.096 µM and 1.09 µM, respectively.
Turning to `CC(C)(C)C#Cc1cc(-c2ccnc3[nH]c(C(F)(F)F)nc23)cc2c(N)n[nH]c12` [Example 308, 7-(3,3-dimethylbut-1-yn-1-yl)-5-(2-(trifluoromethyl)-3H-imidazo[4,5-b]pyridin-7-yl)-1H-indazol-3-amine], the Ki at Recombinant IKKα is 0.223 µM; on Recombinant IKKβ it was above 3.33 µM.
